Data on 18 molecules can be found in ChEMBL document CHEMBL1909046, “DrugMatrix in vitro pharmacology data”.

One assay addresses Melanocortin receptor 3 (Homo sapiens, UniProt P41968). It counts as cell membranes, HEK293, Membrane. The following applies: hek293.
A short description of assay [1]: DRUGMATRIX: Purinergic P2X radioligand binding (ligand: [3H] alpha, beta-Methylene-ATP). It counts as cell membranes, Oryctolagus cuniculus, New Zealand albino, Urinary bladder, Membrane. The following applies: Not Active = under 50% inhibition at 10 µM.
Assay [2] can be described thus: DRUGMATRIX: Nicotinic Acetylcholine radioligand binding (ligand: [125I] Epibatidine). It counts as cell membranes, Membrane. The following applies: imr-32, Not Active = under 50% inhibition at 10 µM.
Assay [3] has as its target T1, Muscarinic acetylcholine receptor M2 (Homo sapiens, UniProt P08172). Also: in other assays of this panel Not Active means under 50% inhibition at 10 µM.
T1 sequence (P08172 whole entry): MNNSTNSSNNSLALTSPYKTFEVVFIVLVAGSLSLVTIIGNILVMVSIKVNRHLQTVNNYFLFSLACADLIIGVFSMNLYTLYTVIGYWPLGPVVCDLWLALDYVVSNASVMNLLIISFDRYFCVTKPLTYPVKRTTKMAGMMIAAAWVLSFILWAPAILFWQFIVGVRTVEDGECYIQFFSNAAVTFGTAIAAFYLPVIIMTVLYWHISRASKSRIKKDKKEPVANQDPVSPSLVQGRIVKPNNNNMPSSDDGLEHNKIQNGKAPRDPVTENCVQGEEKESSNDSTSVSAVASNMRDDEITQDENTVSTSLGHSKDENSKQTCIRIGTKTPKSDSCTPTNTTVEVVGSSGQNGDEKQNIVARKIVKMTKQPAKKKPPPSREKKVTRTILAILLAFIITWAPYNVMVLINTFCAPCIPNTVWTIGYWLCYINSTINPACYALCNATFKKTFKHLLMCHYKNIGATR
The class given is cell membranes, CHO-K1, Membrane.

Assay [4] concerns the target T2, Muscarinic acetylcholine receptor M5 (Homo sapiens, UniProt P08912). Also: in other assays of this panel Not Active means under 50% inhibition at 10 µM.
T2 sequence (P08912 whole entry): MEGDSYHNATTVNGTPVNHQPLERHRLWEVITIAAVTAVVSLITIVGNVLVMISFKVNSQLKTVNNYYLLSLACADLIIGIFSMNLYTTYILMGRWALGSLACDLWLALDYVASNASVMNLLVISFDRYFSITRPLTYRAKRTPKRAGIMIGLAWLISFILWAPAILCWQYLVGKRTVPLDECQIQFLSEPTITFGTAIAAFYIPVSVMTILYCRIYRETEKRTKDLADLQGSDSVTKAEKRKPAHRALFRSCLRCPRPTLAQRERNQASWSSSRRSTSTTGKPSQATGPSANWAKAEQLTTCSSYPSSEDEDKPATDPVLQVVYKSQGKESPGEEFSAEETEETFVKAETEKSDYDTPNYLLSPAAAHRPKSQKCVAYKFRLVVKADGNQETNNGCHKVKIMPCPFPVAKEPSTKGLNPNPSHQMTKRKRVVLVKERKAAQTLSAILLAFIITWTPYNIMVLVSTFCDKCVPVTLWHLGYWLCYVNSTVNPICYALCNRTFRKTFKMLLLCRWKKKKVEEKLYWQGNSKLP
The class given is cell membranes, CHO-K1, Membrane. The conditions noted are these: cho-k1.

Assay [5] in a line: DRUGMATRIX: Phosphodiesterase PDE4 enzyme inhibition (substrate: [3H]cAMP + cAMP). The conditions noted are these: u-937; Not Active = under 50% inhibition at 10 µM.

Chain of Melanocortin receptor 3 (P41968 whole entry): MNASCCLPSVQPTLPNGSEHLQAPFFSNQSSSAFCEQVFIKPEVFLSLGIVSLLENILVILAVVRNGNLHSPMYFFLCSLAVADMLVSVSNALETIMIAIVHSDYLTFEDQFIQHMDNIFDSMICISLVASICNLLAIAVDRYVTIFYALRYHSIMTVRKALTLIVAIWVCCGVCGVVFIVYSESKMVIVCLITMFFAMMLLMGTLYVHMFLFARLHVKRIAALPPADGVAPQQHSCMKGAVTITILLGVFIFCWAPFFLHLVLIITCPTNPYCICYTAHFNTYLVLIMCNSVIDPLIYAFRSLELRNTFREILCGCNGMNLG

As for `CC(N)Cc1c[nH]c2ccc(OCc3cccs3)cc12` (stereo not drawn) [BW-723C86], the IC50 entry (on Melanocortin receptor 3; in assay [1]; in assay [2]; in assay [3] (cho-k1); in assay [4]; in assay [5]) was “Not Active” each time. In addition, the Ki result in assay [1], in assay [2] and in assay [5] was “Not Active” throughout.
As to `CC12CCC(CC1=O)C2(C)C` (stereo not drawn) [CAMPHOR], the IC50 entry (against Melanocortin receptor 3; in assay [1]; in assay [2]; in assay [3] (cho-k1); in assay [4]; in assay [5]) was “Not Active” throughout. The Ki result in assay [1], in assay [2] and in assay [5] was “Not Active” in each case.
For `C[N+](C)(C)CCOC(N)=O.[Cl-]` [CARBACHOL], the IC50 (commonly the concentration at which inhibition is half-maximal) against Melanocortin receptor 3 was “Not Active”; in assay [1], “Not Active”; in assay [2] (read-out: IC50), 1 µM; in assay [3] (cho-k1), “Not Active”; in assay [4], “Not Active”; in assay [5] it was “Not Active”. The Ki (in general, the equilibrium dissociation constant of an inhibitor or competing ligand from its target) was “Not Active” in assay [1], 0.334 µM in assay [2] (read-out: Ki) and “Not Active” in assay [5].
As for `CCCCCCNC(=O)n1cc(F)c(=O)[nH]c1=O` [CARMOFUR], the IC50 result (against Melanocortin receptor 3; in assay [1]; in assay [2]; in assay [3] (cho-k1); in assay [4]; in assay [5]) was “Not Active” each time. In addition, the Ki result in assay [1], in assay [2] and in assay [5] was “Not Active” throughout.
On to `COc1ccccc1OCCNCC(O)COc1cccc2[nH]c3ccccc3c12` (stereo not drawn) [CARVEDILOL], for which the IC50 result (against Melanocortin receptor 3; in assay [1]; in assay [2]; in assay [3] (cho-k1); in assay [4]; in assay [5]) was “Not Active” throughout. Moreover, the Ki result in assay [1], in assay [2] and in assay [5] was “Not Active” each time.
With `Cl.NC[C@H]1CC[C@H](C(=O)Oc2ccc(CCC(=O)O)cc2)CC1` [CETRAXATE HYDROCHLORIDE], the IC50 result (against Melanocortin receptor 3; in assay [1]; in assay [2]; in assay [3] (cho-k1); in assay [4]; in assay [5]) was “Not Active” each time. Further, the Ki result in assay [1], in assay [2] and in assay [5] was “Not Active” in each case.
For the molecule `CC1(COc2ccc(CC3SC(=O)NC3=O)cc2)CCCCC1` (stereo not drawn) [CIGLITAZONE], the IC50 result was “Not Active” against Melanocortin receptor 3; “Not Active” in assay [1]; “Not Active” in assay [2]; 21.1 µM in assay [3] (read-out: IC50); “Not Active” in assay [4]; “Not Active” in assay [5]. Also, the Ki entry in assay [1] was “Not Active”; in assay [2], “Not Active”; in assay [3] (read-out: Ki), 7.5 µM; in assay [5], “Not Active”.
For the molecule `CC(C)Cc1ccc([C@H](C)C(=O)O)cc1` [DEXIBUPROFEN], the IC50 result (against Melanocortin receptor 3; in assay [1]; in assay [2]; in assay [3] (cho-k1); in assay [4]; in assay [5]) was “Not Active” in each case. Also, the Ki entry in assay [1], in assay [2] and in assay [5] was “Not Active” each time.
As to `O=c1[nH]cnc2c1ncn2[C@H]1CC[C@@H](CO)O1` [DIDANOSINE], the IC50 result (on Melanocortin receptor 3; in assay [1]; in assay [2]; in assay [3] (cho-k1); in assay [4]; in assay [5]) was “Not Active” in each case. Besides, the Ki result in assay [1], in assay [2] and in assay [5] was “Not Active” throughout.
In the case of `ClC1=C(Cl)[C@]2(Cl)[C@@H]3[C@@H]4C[C@@H]([C@H]5O[C@@H]45)[C@@H]3[C@@]1(Cl)C2(Cl)Cl` [DIELDRIN], the IC50 entry (against Melanocortin receptor 3; in assay [1]; in assay [2]; in assay [3] (cho-k1); in assay [4]; in assay [5]) was “Not Active” throughout. Besides, the Ki result in assay [1], in assay [2] and in assay [5] was “Not Active” throughout.
On to `CCN1CCN(c2cc3c(cc2F)c(=O)c(C(=O)O)cn3C2CC2)CC1` [ENROFLOXACIN], for which the IC50 result (against Melanocortin receptor 3; in assay [1]; in assay [2]; in assay [3] (cho-k1); in assay [4]; in assay [5]) was “Not Active” throughout. Moreover, the Ki entry in assay [1], in assay [2] and in assay [5] was “Not Active” throughout.
In the case of `CNC[C@H](O)c1ccc(O)c(O)c1` [EPINEPHRINE], the half-inhibitory concentration (IC50) result (on Melanocortin receptor 3; in assay [1]; in assay [2]; in assay [3] (cho-k1); in assay [4]; in assay [5]) was “Not Active” in each case. Further, the Ki result in assay [1], in assay [2] and in assay [5] was “Not Active” throughout.
Consider `CC[C@H]1OC(=O)[C@H](C)[C@@H](O[C@H]2C[C@@](C)(OC)[C@@H](O)[C@H](C)O2)[C@H](C)[C@@H](O[C@@H]2O[C@H](C)C[C@H](N(C)C)[C@H]2O)[C@](C)(O)C[C@@H](C)C(=O)[C@H](C)[C@@H](O)[C@]1(C)O` [ERYTHROMYCIN], for which the IC50 entry (against Melanocortin receptor 3; in assay [1]; in assay [2]; in assay [3] (cho-k1); in assay [4]; in assay [5]) was “Not Active” in each case. Also, the inhibitory constant (Ki) entry in assay [1], in assay [2] and in assay [5] was “Not Active” each time.
`CC12CCC(CC1)C(C)(C)O2` [EUCALYPTOL]: the IC50 entry (on Melanocortin receptor 3; in assay [1]; in assay [2]; in assay [3] (cho-k1); in assay [4]; in assay [5]) was “Not Active” throughout. Moreover, the Ki entry in assay [1], in assay [2] and in assay [5] was “Not Active” each time.
`NC(N)=Nc1nc(CSCCC(N)=NS(N)(=O)=O)cs1` [FAMOTIDINE]: the IC50 entry (against Melanocortin receptor 3; in assay [1]; in assay [2]; in assay [3] (cho-k1); in assay [4]; in assay [5]) was “Not Active” each time. The Ki entry in assay [1], in assay [2] and in assay [5] was “Not Active” throughout.
In the case of `COC(=O)Nc1nc2ccc(Sc3ccccc3)cc2[nH]1` [FENBENDAZOLE], the IC50 entry (at Melanocortin receptor 3; in assay [1]; in assay [2]; in assay [3] (cho-k1); in assay [4]; in assay [5]) was “Not Active” each time. Moreover, the Ki result in assay [1], in assay [2] and in assay [5] was “Not Active” in each case.
With `COc1cc(/C=C/C(=O)O)ccc1O` [FERULATE], the IC50 result (against Melanocortin receptor 3; in assay [1]; in assay [2]; in assay [3] (cho-k1); in assay [4]; in assay [5]) was “Not Active” throughout. Also, the Ki result in assay [1], in assay [2] and in assay [5] was “Not Active” in each case.
As to `Nc1nc(F)nc2c1ncn2[C@@H]1O[C@H](CO)[C@@H](O)[C@@H]1O` [FLUDARABINE], the IC50 entry (against Melanocortin receptor 3; in assay [1]; in assay [2]; in assay [3] (cho-k1); in assay [4]; in assay [5]) was “Not Active” each time. Besides, the Ki entry in assay [1], in assay [2] and in assay [5] was “Not Active” in each case.
